Results published in patent US20190209581A1, “DOSAGE REGIMEN FOR TREATMENT OF SOLID TUMORS” (Eli Lilly and Company, priority 2016, published 2019).

Columns and labels:
Type in all cases: in vivo
[1] = tested on: A2780 human ovarian cell line; test: Tumor growth inhibition, A2780 xenograft; details: for % TGI: A2780 in mice
Procedure: To evaluate in vivo efficacy and effect of 4,4,4-Trifluoro-N-[(1S)-2-[[(7S)-5-(2-hydroxyethyl)-6-oxo-7H-pyrido[2,3-d][3]benzazepin-7-yl]amino]-1-methyl-2-oxo-ethyl]butanamide on inhibition of Notch processing pharmacodynamics (PD), several cell lines- and patient-derived xenograft models are used. A2780 is a human ovarian cell line (Sigma-Aldrich, No. 93112519); SW480 is a human colorectal cell line (ATCC No. CCL-228); HCT 116 is a human colorectal cell line (ATCC No. CCL-247); U-87 MG is a human glioblastoma cell line (ATCC No. HTB-14); A375 is a human malignant melanoma cell line (ATCC No. CRL-1619); K-562 is a human chronic myelogenous leukemia (CML) cell line characterized by the presence of a fusion transcript comprised of the Bcr and Abl1 genes (ATCC No. CCL-243); Jurkat; HEL 92.1.7 is a human erythroleukemia cell line (ATCC No. TIB-180). Each of the cell lines are obtained from the American Type Culture Collection (ATCC) at the ATCC number stated, except the A2780 cell line which is obtained from Sigma-Aldrich at the stated catalog number. The cells are grown in their respective, recommended culture media at 37° C. in 5% CO2 with humidity in the atmosphere. A2780 (2×10^6), SW480 (6×10^6), HCT 116 (6×10^6), U-87 MG (6×10^6), and A-375 (10×10^6) cells in a 1:1 matrigel mix (0.2 mL volume) are implanted by subcutaneous injection in the hind leg of 6-8 weeks of age athymic nude female mice (Harlan Laboratories). K-562 (6×10^6) cells in a 1:1 matrigel mix (0.2 mL volume) are implanted by subcutaneous injection in the hind leg of 6-8 weeks of age CD1 nμ/nμ female mice (Charles River Laboratories). HEL 92.1.7 (7×10^6) in a 1:1 matrigel mix (0.2 mL volume) are implanted by subcutaneous injection in the hind leg of 6-8 weeks of age CB17 severely combined immune deficient female mice (Taconic Farms). Patient-derived tumors are minced into 1-2 mm pieces and mixed with matrigel (1:1) in 0.2 ml volume and implanted by subcutaneous injection in the hind leg of 6-8 weeks of age athymic nude female mice (Harlan Laboratories). Patients-derived tumor models include: human colon carcinoma (EL2144), human triple negative invasive ductal breast carcinoma (EL1997), human colon carcinoma (EL1989, EL 1986), and human glioblastoma (EL 2056) with samples obtained after patient consent and hospital approval from IU Health, Methodist Hospital, Indianapolis, Ind., USA 46206. A total of 7 to 10 mice are used for each group. Just before implantation for A2780, SW480, HEL 92.1.7, A-375, K-562, and patient-derived tumor models, animals are irradiated (450 Total Body Irradiation). Mice are fed ad libitum on normal chow. Treatment is initiated with oral administration (gavage) of compound or vehicle (1% Na-CMC in 0.25% Tween®-80) in 0.2 mL volume when tumor size reached to 150±50 mm^3. At designated time points following treatment, animals are sacrificed by CO2 asphyxiation and cervical dislocation. Tumors are removed and used for PD response analysis. Tumor growth and body weight are monitored over time to evaluate efficacy and signs of toxicity. Bidimensional measurements of tumors are performed twice a week and tumor volumes are calculated based on the following formula: (Tumor Volume)=[(L)×(W2)×(Π/6)] where L is mid-axis length and W is mid-axis width. Tumor volume data are transformed to a log scale to equalize variance across time and treatment groups. The log volume data are analyzed with a two-way repeated measures analysis of variance by time and treatment using the MIXED™ procedures in SAS™ software (version 8.2). The correlation model for the repeated measures is spatial power. Treated groups are compared to the control group at each time point. The MIXED™ procedure is also used separately for each treatment group to calculate adjusted means and standard errors at each time point. Both analyses account for the autocorrelation within each animal and the loss of data that occurs when animals with large tumors are removed from the study early. […]

[2] = tested on: human colon carcinoma (EL1989); test: Tumor growth inhibition, patient-derived tumor model EL1989; details: EL1989 in mice, oral 10 mg/kg (Q2Dx7), 11-days OFF, 8 mg/kg (Mon, Wed, Fri)x3; p <0.0001
Procedure: (§1) To evaluate in vivo efficacy and effect of 4,4,4-Trifluoro-N-[(1S)-2-[[(7S)-5-(2-hydroxyethyl)-6-oxo-7H-pyrido[2,3-d][3]benzazepin-7-yl]amino]-1-methyl-2-oxo-ethyl]butanamide on inhibition of Notch processing pharmacodynamics (PD), several cell lines- and patient-derived xenograft models are used. A2780 is a human ovarian cell line (Sigma-Aldrich, No. 93112519); SW480 is a human colorectal cell line (ATCC No. CCL-228); HCT 116 is a human colorectal cell line (ATCC No. CCL-247); U-87 MG is a human glioblastoma cell line (ATCC No. HTB-14); A375 is a human malignant melanoma cell line (ATCC No. CRL-1619); K-562 is a human chronic myelogenous leukemia (CML) cell line characterized by the presence of a fusion transcript comprised of the Bcr and Abl1 genes (ATCC No. CCL-243); Jurkat; HEL 92.1.7 is a human erythroleukemia cell line (ATCC No. TIB-180). […] Tumor growth and body weight are monitored over time to evaluate efficacy and signs of toxicity. Bidimensional measurements of tumors are performed twice a week and tumor volumes are calculated based on the following formula: (Tumor Volume)=[(L)×(W2)×(Π/6)] where L is mid-axis length and W is mid-axis width. […] The log volume data are analyzed with a two-way repeated measures analysis of variance by time and treatment using the MIXED™ procedures in SAS™ software (version 8.2). […]

[3] = tested on: human colon carcinoma (EL2144); test: Tumor growth inhibition, patient-derived tumor model EL2144; details: EL2144 in mice, oral 10 mg/kg, Q2Dx8; p <0.0001
Procedure: as §1

`C[C@H](NC(=O)CCC(F)(F)F)C(=O)N[C@@H]1C(=O)N(CCO)c2ncccc2-c2ccccc21` [Compound 1, 4,4,4-trifluoro-N-[(1S)-2-[[(7S)-5-(2-hydroxyethyl)-6-oxo-7H-pyrido[2,3-d][3]benzazepin-7-yl]amino]-1-methyl-2-oxo-ethyl]butanamide] was tested, and the “% TGI” value ([1]; oral 1.5 mg/kg, QDx26, p <0.05 to <0.01) was 33.36 (<0.05 to %, the “% TGI” value ([1]; oral 3 mg/kg, (BID)QDx7 + (BID)Q2Dx7, p <0.0001) was 72.35 (<0.0001) % and the “% TGI” value ([1]; oral 3 mg/kg, Q2Dx13, p <0.05 to <0.01) was 36.65 (<0.05 to %. The “% TGI” value ([1]; oral 3 mg/kg, QDx21, p <0.0001) was 46.60 (<0.0001) %, the “% TGI” value ([1]; oral 6 mg/kg, Q2Dx13, p <0.05 to <0.01) was 36.33 (<0.05 to % and the “% TGI” value ([1]; oral 7 mg/kg, Q2Dx13, p <0.0001) was 56.95 (<0.0001) %. The “% TGI” value ([1]; oral 8 mg/kg, Q2Dx13, p <0.0001) was 68.60 (<0.0001) %, the “% TGI” value ([1]; oral 10 mg/kg, Q2Dx11, p <0.0001) was 56.55 (<0.0001) % and the “% TGI” value ([1]; oral 10 mg/kg, Q2Dx13, p <0.0001) was 51.11 (<0.0001) %. For the same compound, the “% TGI” value ([1]; oral 10 mg/kg, Q3Dx8, p <0.0001) was 32.99 (<0.0001) %, the “Effect of alternative dosing regimens on tumor growth inhibition” value ([1]; xenograft models of Table 5) was “more frequent dosing affords greater efficacy” and the “% TGI” value [2] was 70.42 (<0.0001) %. The “% TGI” value [3] was 53.37 (<0.0001) %.
